Where two headings read alike, the source gives them in different places. Some results are limits rather than exact numbers.

For data set [1], the target named is wild-type human cardiac sodium channel, hNav1.5 (late INa) (Homo sapiens, UniProt Q14524). Description: Late INa screening assay (QPatch whole cell patch clamp). Format: cell-based. Summed up: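 Compounds tested at 1 μM final in extracellular solution against tefluthrin (10 μM)-enhanced late current. Automated patch clamp (23-25° C) on HEK293 expressing alpha subunit alone: −120 mV holding, 250 ms depolarization to −20 mV every 10 s. Read-out is percent inhibition of mean current over 225–250 ms.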
Chain of wild-type human cardiac sodium channel, hNav1.5 (late INa) (Q14524 whole entry): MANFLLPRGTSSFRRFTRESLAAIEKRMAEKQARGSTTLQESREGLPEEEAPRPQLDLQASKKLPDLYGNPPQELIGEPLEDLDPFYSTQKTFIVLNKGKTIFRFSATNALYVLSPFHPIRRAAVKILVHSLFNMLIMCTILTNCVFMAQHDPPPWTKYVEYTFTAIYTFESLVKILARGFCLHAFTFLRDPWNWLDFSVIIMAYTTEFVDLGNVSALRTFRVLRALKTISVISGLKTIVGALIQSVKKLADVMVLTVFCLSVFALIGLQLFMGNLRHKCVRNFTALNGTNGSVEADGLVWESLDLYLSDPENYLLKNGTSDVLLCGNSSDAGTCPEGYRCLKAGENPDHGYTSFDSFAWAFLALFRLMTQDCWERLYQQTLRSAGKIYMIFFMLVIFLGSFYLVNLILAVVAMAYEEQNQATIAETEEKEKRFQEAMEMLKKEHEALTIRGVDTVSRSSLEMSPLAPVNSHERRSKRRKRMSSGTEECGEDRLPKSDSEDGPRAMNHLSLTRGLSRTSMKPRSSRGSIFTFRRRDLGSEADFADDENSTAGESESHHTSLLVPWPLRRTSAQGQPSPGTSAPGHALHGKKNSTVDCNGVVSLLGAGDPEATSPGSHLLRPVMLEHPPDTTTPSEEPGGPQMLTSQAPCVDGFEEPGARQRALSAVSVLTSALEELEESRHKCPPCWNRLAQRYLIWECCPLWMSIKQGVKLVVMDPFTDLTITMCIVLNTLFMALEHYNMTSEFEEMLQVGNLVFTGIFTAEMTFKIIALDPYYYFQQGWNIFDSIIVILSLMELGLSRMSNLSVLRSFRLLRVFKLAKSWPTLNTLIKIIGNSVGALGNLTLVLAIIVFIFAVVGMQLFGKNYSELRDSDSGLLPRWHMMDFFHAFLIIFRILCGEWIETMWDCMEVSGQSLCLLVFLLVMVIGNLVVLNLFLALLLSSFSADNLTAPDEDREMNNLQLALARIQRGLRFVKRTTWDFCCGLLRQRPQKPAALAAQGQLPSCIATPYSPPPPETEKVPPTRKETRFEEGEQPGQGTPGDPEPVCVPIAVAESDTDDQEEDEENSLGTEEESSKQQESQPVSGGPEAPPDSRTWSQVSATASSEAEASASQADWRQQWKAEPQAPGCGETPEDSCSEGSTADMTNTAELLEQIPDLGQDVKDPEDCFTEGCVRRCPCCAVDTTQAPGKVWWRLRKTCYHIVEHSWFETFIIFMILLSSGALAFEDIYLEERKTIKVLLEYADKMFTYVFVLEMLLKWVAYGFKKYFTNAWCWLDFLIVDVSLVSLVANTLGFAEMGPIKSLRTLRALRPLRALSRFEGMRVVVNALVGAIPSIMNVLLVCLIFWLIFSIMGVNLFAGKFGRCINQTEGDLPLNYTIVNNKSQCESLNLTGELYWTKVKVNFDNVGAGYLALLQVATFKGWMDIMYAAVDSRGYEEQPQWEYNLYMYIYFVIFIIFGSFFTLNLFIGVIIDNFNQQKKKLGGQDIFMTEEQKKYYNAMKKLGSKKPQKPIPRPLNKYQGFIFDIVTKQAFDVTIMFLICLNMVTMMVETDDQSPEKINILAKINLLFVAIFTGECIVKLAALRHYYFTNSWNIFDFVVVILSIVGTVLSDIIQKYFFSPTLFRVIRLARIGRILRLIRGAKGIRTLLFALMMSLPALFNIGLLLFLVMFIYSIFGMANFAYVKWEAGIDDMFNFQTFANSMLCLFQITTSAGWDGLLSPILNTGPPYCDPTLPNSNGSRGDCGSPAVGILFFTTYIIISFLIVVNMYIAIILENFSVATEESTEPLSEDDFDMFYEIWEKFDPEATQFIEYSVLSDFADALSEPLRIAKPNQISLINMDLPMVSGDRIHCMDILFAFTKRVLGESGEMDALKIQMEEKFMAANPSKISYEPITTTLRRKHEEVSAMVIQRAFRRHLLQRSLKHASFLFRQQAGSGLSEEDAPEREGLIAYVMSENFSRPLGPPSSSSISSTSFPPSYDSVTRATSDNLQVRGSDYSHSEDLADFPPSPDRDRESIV
(In patch-clamp work, channel activity is measured electrically.)

For data set [2], the target named is hERG potassium channel (Homo sapiens, UniProt Q12809). Description: hERG screening assay (PatchXpress, CHO cells). The class given is cell-based. Conditions: % inhibition at 1 μM. How it is done: Compounds were also tested for their effect to block the hERG K^+ channel.
Chain of hERG potassium channel (Q12809 whole entry): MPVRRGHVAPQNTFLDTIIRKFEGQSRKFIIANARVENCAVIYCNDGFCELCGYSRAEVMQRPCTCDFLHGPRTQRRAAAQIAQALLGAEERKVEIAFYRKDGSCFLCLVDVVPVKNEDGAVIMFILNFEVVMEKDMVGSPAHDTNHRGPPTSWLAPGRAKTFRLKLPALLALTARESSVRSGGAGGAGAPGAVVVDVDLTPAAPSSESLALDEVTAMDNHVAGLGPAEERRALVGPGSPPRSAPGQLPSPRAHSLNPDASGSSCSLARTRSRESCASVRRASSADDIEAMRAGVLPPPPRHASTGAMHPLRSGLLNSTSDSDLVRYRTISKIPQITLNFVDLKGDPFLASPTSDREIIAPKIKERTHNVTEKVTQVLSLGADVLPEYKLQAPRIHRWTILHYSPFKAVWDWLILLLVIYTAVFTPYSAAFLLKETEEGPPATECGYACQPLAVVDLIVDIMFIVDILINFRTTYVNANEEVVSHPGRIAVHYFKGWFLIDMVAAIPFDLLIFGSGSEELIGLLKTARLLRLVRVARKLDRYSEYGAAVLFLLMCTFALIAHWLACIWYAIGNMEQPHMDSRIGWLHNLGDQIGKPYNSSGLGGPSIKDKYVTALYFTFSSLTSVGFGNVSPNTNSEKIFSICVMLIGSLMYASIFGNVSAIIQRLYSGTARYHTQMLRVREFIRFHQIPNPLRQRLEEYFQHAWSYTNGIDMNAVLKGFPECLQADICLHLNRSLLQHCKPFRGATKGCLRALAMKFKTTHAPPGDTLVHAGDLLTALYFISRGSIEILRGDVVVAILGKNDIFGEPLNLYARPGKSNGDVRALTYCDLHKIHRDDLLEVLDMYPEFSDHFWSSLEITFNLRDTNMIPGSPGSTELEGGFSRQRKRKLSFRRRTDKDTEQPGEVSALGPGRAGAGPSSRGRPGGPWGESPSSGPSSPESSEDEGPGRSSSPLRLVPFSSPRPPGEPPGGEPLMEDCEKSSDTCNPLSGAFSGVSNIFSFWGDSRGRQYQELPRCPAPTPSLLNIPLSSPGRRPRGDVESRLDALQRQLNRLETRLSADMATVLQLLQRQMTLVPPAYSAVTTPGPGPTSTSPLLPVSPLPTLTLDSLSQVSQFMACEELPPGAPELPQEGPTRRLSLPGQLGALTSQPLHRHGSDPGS
Compounds were screened to test their activity in blocking the hERG potassium channel at AVIVA Biosciences (San Deigo, Calif., USA). The hERG channel is heterologously expressed in a CHO (Chinese Hamster Ovary) cell line. Cells were maintained with standard tissue culture procedures and stable channel expression was maintained with 500 μg/mL G418 in the culture medium. Cells were harvested for testing on the PatchXpress 7000A automated patch clamp with Accumax (Innovative Cell Technologies, San Diego, Calif.) to isolate single cells.
The following solutions were used for electrophysiological recordings. The external solution contained: 2 mM CaCl2; 2 mM MgCl2; 4 mM KCl; 150 mM NaCl; 10 mM Glucose; 10 mM HEPES (pH 7.4 with 1M NaOH; osmolarity, ˜310 mOsm). The internal solution contained: 140 mM KCl, 10 mM MgCl2, 6 mM EGTA, 5 mM HEPES, 5 mM ATP (pH adjusted to 7.25 with KOH; osmolarity, ˜295 mOsm).
hERG channels were activated when the voltage was first stepped to −50 mV for 300 ms from the −80 mV holding potential and then stepped to +20 mV for 5 seconds. At +20 mV the channels open and then largely inactivate, so the currents are relatively small. Upon returning to −50 mV from +20 mV, hERG currents transiently become much larger as inactivation is rapidly removed and then the channel closes. The first step to −50 mV for 300 ms was used as a baseline for measuring the peak amplitude during the step to −50 mV after channel activation. The peak tail current at −50 mV was measured both under control conditions and after addition of compound, each cell serving as its own control.
All compounds were prepared as 10 mM DMSO stocks in glass vials. Stock solutions were mixed by vigorous vortexing and sonication for about 2 minutes at room temperature. For testing, compounds were diluted in glass vials using an intermediate dilution step in pure DMSO and then further diluted to working concentrations in external solution. Dilutions were prepared no longer than 20 minutes before use.
For the electrophysiological recordings, after achieving the whole-cell configuration, cells were monitored for 90 seconds to assess stability and washed with external solution for 66 seconds. The voltage protocol described above was then applied to the cells every 12 seconds and throughout the whole procedure. Only cells with stable recording parameters and meeting specified health criteria were allowed to enter the compound addition procedure.
External solution containing 0.1% DMSO (vehicle) was applied to the cells first to establish the control peak current amplitude. After allowing the current to stabilize for 3 to 5 minutes, 1 μM and then 10 μM test compounds were applied. Each compound concentration was added 4 times and cells were kept in test solution until the effect of the compound reached steady state or for a maximum of 12 minutes. After addition of test compound, a positive control (1 μM Cisapride) was added and must block >95% of the current for the experiment to be considered valid. Washout in the external solution compartment was performed until the recovery of the current reached steady state.
(Block of hERG is tested as a sign of cardiac risk.)

The nature of data set [3]: Microsomal stability assay, human. Particulars: metabolic stability, human liver microsomes 0.5 mg/mL, substrate 3 uM. The class given is in vitro ADME. Summed up: (§1)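 Liver microsomes at 0.5 mg/mL protein in 100 mM KPO4 buffer, incubated with 3 uM compound and NADPH-regenerating system, run in duplicate. Samples taken at 2, 12, 25, 45 and 65 min and quenched in MeOH/ACN/water before analysis.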

Data set [4] can be described thus: Microsomal stability assay, rat. Conditions: metabolic stability, rat liver microsomes 0.5 mg/mL, substrate 3 uM. The class given is in vitro ADME. Summed up:
as §1
For orientation: Liver microsomes are vesicles of endoplasmic reticulum, rich in cytochrome P450 enzymes.

The nature of data set [5]: Microsomal stability assay, dog. The class given is in vitro ADME. Conditions: metabolic stability, dog liver microsomes 0.5 mg/mL, substrate 3 uM. In a few lines:
as §1

Data set [6] addresses wild-type human cardiac sodium channel, hNav1.5 (peak INa) (Homo sapiens, UniProt Q14524). The data set is described as follows: Peak INa screening assay (tonic and use-dependent block). Format: cell-based. Summed up:
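Whole-cell automated patch clamp, HEK293 stably expressing hNav1.5 alpha without beta subunits, 23-25° C, holding −100 mV; bath Na⁺ reduced to 20 mM, CsF-based intracellular pH 7.4. Test compound 1 μM; tonic block at 0.1 Hz, use-dependent block at 3 Hz, % peak block after rundown correction.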

Where [7] appears, read: % inhibition at 1 μM, read-out: NAv1.5*-LATE-.
The mark [8] stands for this setting: percent block of late INa, compound at 1 μM, 10 μM Tefluthrin, HEK293 hNav1.5, read-out: Late INa 1 μM.
Setting [9] is: % inhibition at 1 μM, tonic block, read-out: NAv1.5*-PEAK-TB-.
Setting [10] is: % inhibition at 1 μM, use-dependent block 3 Hz, read-out: NAv1.5*-PEAK-UDB-3 HZ-.
[11] abbreviates: tonic block of peak INa, 0.1 Hz, 1 μM, read-out: Peak TB 1 μM.
Where [12] appears, read: use-dependent block of peak INa, 3 Hz, 1 μM, read-out: Peak UDB 1 μM.

On to `O=c1c2cc(-c3ccc(OC(F)(F)F)cc3)ccc2nnn1CCOc1nccc(-c2noc(C3CC3)n2)n1` [II-60, 3-(2-(4-(5-cyclopropyl-1,2,4-oxadiazol-3-yl)pyrimidin-2-yloxy)ethyl)-6-(4-(trifluoromethoxy)phenyl)benzo[d][1,2,3]triazin-4(3H)-one], for which the inhibition at 1 µM in data set [1] (setting [7]) and in data set [1] (setting [8]) was 32% in each case. Moreover, in data set [2], the “HERG*” value was found to be 31%. In data set [3], this compound returned an MS Human THalf of 362 min. This compound had an MS Rat THalf in data set [4] of over 395 min. The same compound returned an MS Dog THalf in data set [5] of 356 min.
For `O=c1c2cc(-c3ccc(OC(F)(F)F)cc3)ccc2nnn1Cc1nnc(C2CC2)s1` [II-66, 3-((5-cyclopropyl-1,3,4-thiadiazol-2-yl)methyl)-6-(4-(trifluoromethoxy)phenyl)benzo[d][1,2,3]triazin-4(3H)-one], the inhibition at 1 µM in data set [1] (setting [7]) and in data set [1] (setting [8]) was 39% throughout. For the same compound, the “HERG*” value in data set [2] stood at 23%. In addition, in data set [3], the MS Human THalf was over 395 min. Also, the MS Rat THalf in data set [4] was found to be 181 min. Also, the MS Dog THalf in data set [5] is over 395 min.
Take `O=c1c2cc(-c3ccc(OC(F)(F)F)cc3)ccc2cnn1Cc1ncc(Cl)cn1` [III-35, 2-((5-chloropyrimidin-2-yl)methyl)-7-(4-(trifluoromethoxy)phenyl)phthalazin-1 (2H)-one]: the inhibition at 1 µM in data set [1] (setting [7]) and in data set [1] (setting [8]) was 38% in each case. Also, the “HERG*” value in data set [2] is reported as 17%. Further, in data set [3], the MS Human THalf is over 395 min. In data set [4], the MS Rat THalf amounted to 296 min. Further, the MS Dog THalf in data set [5] was 85 min.
Turning to `O=C(c1ncccc1F)N1CCc2ccc(-c3ccc(C(F)(F)F)cc3)cc2C1` [IX-25, (3-fluoropyridin-2-yl)(7-(4-(trifluoromethyl)phenyl)-3,4-dihydroisoquinolin-2(1H)-yl)methanone], the inhibition at 1 µM is 28% in data set [6] (setting [9]); 32% in data set [6] (setting [10]); 28% in data set [6] (setting [11]); 33% in data set [6] (setting [12]); 57% in data set [1] (setting [7]); 57% in data set [1] (setting [8]). For the same compound, the MS Human THalf in data set [3] was 320 min. For the same compound, the MS Rat THalf in data set [4] came out at 170 min. The MS Dog THalf in data set [5] was 97 min.
On to `O=C(Cc1ccccn1)N1CCc2ccc(-c3ccc(C(F)(F)F)cc3)cc2C1` [IX-29, 2-(pyridin-2-yl)-1-(7-(4-(trifluoromethyl)phenyl)-3,4-dihydroisoquinolin-2(1H)-yl)ethanone], for which the inhibition at 1 µM in data set [6] (setting [9]) was 10%; in data set [6] (setting [10]), 12%; in data set [6] (setting [11]) it was 10%; in data set [6] (setting [12]), 12%; in data set [1] (setting [7]), 45%; in data set [1] (setting [8]), 45%. In addition, in data set [3], the MS Human THalf is 33 min. The MS Rat THalf in data set [4] worked out at 48 min. The MS Dog THalf in data set [5] was found to be 138 min.
On to `O=C(c1ncc[nH]1)N1CCc2ccc(-c3ccc(C(F)(F)F)cc3)cc2C1` [IX-57, (1H-imidazol-2-yl)(7-(4-(trifluoromethyl)phenyl)-3,4-dihydroisoquinolin-2(1H)-yl)methanone], for which the inhibition at 1 µM came to 10% in data set [6] (setting [9]); 6% in data set [6] (setting [10]); 10% in data set [6] (setting [11]); 6% in data set [6] (setting [12]); 44% in data set [1] (setting [7]); 44% in data set [1] (setting [8]). In data set [3], this compound came in with an MS Human THalf of 159 min. In addition, the MS Rat THalf in data set [4] came out at 132 min. The MS Dog THalf in data set [5] was found to be 245 min.
Turning to `C[C@@H]1CC[C@@H](C)N1C(=O)N1CCc2ccc(-c3ccc(C(F)(F)F)cc3)cc2C1` [IX-105], the inhibition at 1 µM is 6% in data set [6] (setting [9]); 3% in data set [6] (setting [10]); 6% in data set [6] (setting [11]); 3% in data set [6] (setting [12]); 43% in data set [1] (setting [7]); 43% in data set [1] (setting [8]). This compound also displayed an MS Human THalf in data set [3] of 35 min. The same compound returned an MS Rat THalf in data set [4] of 14 min. This compound gave an MS Dog THalf in data set [5] of 74 min.
`O=c1c2cc(C#Cc3ccc(OC(F)(F)F)cc3)ccc2nnn1CCOc1ncccn1` [VII-1, 3-(2-(pyrimidin-2-yloxy)ethyl)-6-((4-(trifluoromethoxy)phenyl)ethynyl)benzo[d][1,2,3]triazin-4(3H)-one]: the results for the inhibition at 1 µM in data set [6] (setting [11]), in data set [6] (setting [12]) and in data set [1] (setting [8]) were 7%, 1% and 55%, respectively. This compound also came in with an MS Human THalf in data set [3] of over 395 min. The compound also had an MS Rat THalf in data set [4] of 44 min. This compound also came in with an MS Dog THalf in data set [5] of 114 min.

The values are drawn from US20150329558A1, “FUSED HETEROCYCLIC COMPOUNDS AS ION CHANNEL MODULATORS” (Gilead Sciences, Inc., priority 2011, published 2015).
